According to US10494380B2, “Nitrogen-containing tricyclic derivatives having HIV replication inhibitory activity” (priority 2015, dated 2019):
Read-outs that look alike come from different tables or passages of the source.

Key:
[1] = test system: HIV; assay type: cell-based; conditions: EC50 in the presence of human serum (25%) versus without human serum, MT-4 cells
Method in brief: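 HIV-infected MT-4 cells (3×10^4/well, infected 1 h at 37° C) are grown 4 days with compound that was first mixed 1 h with human serum or with medium only. Potency shift is the EC50 with serum divided by the EC50 without serum.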

[2] = target: CYP2C9 (Homo sapiens (Human), UniProt P11712); assay: CYP inhibition assay, tolbutamide methyl-hydroxylation (Test Example 4); assay type: in vitro ADME; conditions: pooled human hepatic microsome, 100 μmol/L tolbutamide, 15 minutes, 37° C.
Description: Using commercially available pooled human hepatic microsome, and employing, as markers, 7-ethoxyresorufin O-deethylation (CYP1A2), tolbutamide methyl-hydroxylation (CYP2C9), mephenytoin 4′-hydroxylation (CYP2C19), dextromethorphan O-demethylation (CYP2D6), and terfenadine hydroxylation (CYP3A4) as typical substrate metabolism reactions of human main five CYP enzyme forms (CYP1A2, 2C9, 2C19, 2D6, 3A4) an inhibitory degree of each metabolite production amount by a test compound was assessed.
The reaction conditions were as follows: substrate, 0.5 μmol/L ethoxyresorufin (CYP1A2), 100 μmol/L tolbutamide (CYP2C9), 50 μmol/L S-mephenytoin (CYP2C19), 5 μmol/L dextromethorphan (CYP2D6), 1 μmol/L terfenedine (CYP3A4); reaction time, 15 minutes; reaction temperature, 37° C.; enzyme, pooled human hepatic microsome 0.2 mg protein/mL; test drug concentration, 1, 5, 10, 20 μmol/L (four points).
Each five kinds of substrates, human hepatic microsome, and a test drug in 50 mmol/L Hepes buffer as a reaction solution was added to a 96-well plate as the composition ad described above, NADPH, as a coenzyme was added to initiate metabolism reactions as markers and, after the incubation at 37° C. for 15 minutes, a methanol/acetonitrile=1/1 (V/V) solution was added to stop the reaction. After the centrifugation at 3000 rpm for 15 minutes, resorufin (CYP1A2 metabolite) in the supernatant was quantified by a fluorescent multilabel counter and tolbutamide hydroxide (CYP2C9 metabolite), mephenytoin 4′ hydroxide (CYP2C19 metabolite), dextrorphan (CYP2D6 metabolite), and terfenadine alcohol (CYP3A4 metabolite) were quantified by LC/MS/MS.

[3] = test system: HIV (HTLV-IIIB strain); assay: HIV replication inhibition assay (Test Example 1; MT-4 cells, MTT); assay type: cell-based; conditions: MT-4 cells, MTT; for EC50: read-out: EC50; for EC90: read-out: EC90
Method in brief: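 MT-4 cells (2.5×10^4/well) were infected with HIV HTLV-IIIB (60 pfu) in the presence of compound and cultured 4 days at 37 °C. Cell viability was read by MTT reduction (OD 560/690 nm). EC50 and EC90 are the concentrations inhibiting virus-induced cytotoxicity by 50% and 90%.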

[4] = test system: T125A mutant virus (HIV-1 NL-432 recombinant molecular clone, IN gene); assay: HIV replication inhibition assay against integrase 124/125 mutant virus (Test Example 2); assay type: cell-based
Method in brief: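 EC50 is the compound concentration blocking half of virus-induced cell death, measured by MTT (OD 560 nm, 690 nm reference) after 4 days at 37 °C. Integrase 124/125 mutant NL-432 virus from transfected 293T cells (60 pfu) was added to 2.5×10^4 MT-4 cells with compound.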

[5] = target: CYP3A4 (Homo sapiens (Human), UniProt P08684); assay: CYP3A4 (MDZ) MBI test (Test Example 6); conditions: pooled human liver microsomes, midazolam 1-hydroxylation, preincubation 0 or 30 min
[6] = test system: sheep red blood cells (RBC); assay: Photohemolysis test (Test Example 13); assay type: cell-based; conditions: 0.0008 to 0.1 w/v %, 10 J/cm2 UV-irradiation (290-400 nm)
Excerpt: Aliquots of sheep red blood cells (RBC) suspension prepared with medium to make a 2.5 v/v % concentration are dispensed into microplates. The compound of the present invention was desolved with a vehicle to make target concentrations and then these solutions were immediately added (in concentrations of 0.0008 to 0.1 w/v %) into the microplates. The mixtures on the microplates were exposed to 10 J/cm2 of UV-irradiation (UV-A and UV-B, 290-400 nm) with a GL20SE lamp (SANKYO DENKI) and a FL20S-BLB lamp (Panasonic). After the UV-irradiation, the mixtures were centrifuged. Aliquots of supernatant were transferred to a microplate. Absorbance of the supernatants was measured at 540 nm and 630 nm for judgement of the potential of phototoxicity. In the study, two endpoints were evaluated in biomembrane impairment (% of photohemolysis index; PI) and hyperoxidation of lipid membrane (methemoglobin formation; met-Hb) with the absorbance at 540 nm and 630 nm, respectively. PI and met-Hb were assessed based on the negative criteria (−), PI<10% and changes in absorbance at 630 nm<0.05, respectively. All else was judged as positive (+).

[7] = Human immunodeficiency virus 1, MT4, 96 h, HIV (HTLV-IIIB strain), four days
[8] = Human immunodeficiency virus 1, MT4, read-out: EC50 against T125A mutant virus, T125A mutant virus (HIV-1 NL-432 IN gene), MT-4 cells, MTT
[9] = HIV (HTLV-IIIB strain), four days
[10] = T125A mutant virus (HIV-1 NL-432 IN gene), MT-4 cells, MTT, read-out: EC50 against T125A mutant virus

Sequence of CYP3A4 (P08684 whole entry): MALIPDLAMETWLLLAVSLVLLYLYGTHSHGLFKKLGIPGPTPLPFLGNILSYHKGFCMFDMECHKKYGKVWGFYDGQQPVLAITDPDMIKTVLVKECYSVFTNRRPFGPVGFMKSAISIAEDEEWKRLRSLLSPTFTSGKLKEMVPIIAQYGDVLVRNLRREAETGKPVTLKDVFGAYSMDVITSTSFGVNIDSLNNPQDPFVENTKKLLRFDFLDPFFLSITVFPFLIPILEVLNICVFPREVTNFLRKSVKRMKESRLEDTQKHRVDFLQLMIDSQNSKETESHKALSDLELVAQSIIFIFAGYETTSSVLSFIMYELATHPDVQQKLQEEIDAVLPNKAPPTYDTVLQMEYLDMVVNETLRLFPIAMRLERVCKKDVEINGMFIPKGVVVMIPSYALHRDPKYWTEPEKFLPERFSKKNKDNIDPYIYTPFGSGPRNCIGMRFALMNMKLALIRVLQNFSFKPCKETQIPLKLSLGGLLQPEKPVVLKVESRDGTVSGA
Sequence of CYP2C9 (P11712 whole entry): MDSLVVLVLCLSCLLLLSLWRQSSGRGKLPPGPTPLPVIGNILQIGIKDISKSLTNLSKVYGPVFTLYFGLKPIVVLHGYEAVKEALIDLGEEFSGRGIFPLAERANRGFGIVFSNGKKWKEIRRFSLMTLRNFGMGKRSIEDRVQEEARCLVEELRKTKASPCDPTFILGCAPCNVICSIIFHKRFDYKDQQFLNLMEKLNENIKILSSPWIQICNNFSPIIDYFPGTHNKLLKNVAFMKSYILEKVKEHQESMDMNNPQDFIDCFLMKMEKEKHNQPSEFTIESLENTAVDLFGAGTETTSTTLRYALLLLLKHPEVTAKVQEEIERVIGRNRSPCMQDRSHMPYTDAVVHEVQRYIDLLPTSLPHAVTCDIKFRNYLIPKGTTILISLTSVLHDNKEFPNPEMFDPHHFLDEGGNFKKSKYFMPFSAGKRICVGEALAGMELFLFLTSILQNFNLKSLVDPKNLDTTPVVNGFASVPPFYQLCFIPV

| Compound | Potency shift value [1] | IC50 [2] [nM] | EC50 [3, 7] [nM] | EC90 [3, 7] [nM] | EC50 [4, 8] [nM] | CYP3A4 (MDZ) MBI, shifted IC [5] | Photohemolysis test, potential of phototoxicity (PI and met-Hb) [6] | EC50 [3, 9] [nM] | EC90 [3, 9] [nM] | EC50 [4, 10] [nM] | EC50 ([3]; Human immunodeficiency virus 1, MT4, 96 h, HIV HTLV-IIIB strain, cultured four days) [nM] |
| --- | --- | --- | --- | --- | --- | --- | --- | --- | --- | --- | --- |
| Cc1ccc(N2CCn3c(C)cc4c(-c5ccc(Cl)cc5)c([C@H](OC(C)(C)C)C(=O)O)c(C)c2c43)nn1 [Compound I-262] | 13 | > 20000 | 3.2 | 5.1 | 5 | (−) (When a shifted IC was 1.0 or less, this was defined as negative) | (−) (negative criteria (−), PI<10% and changes in absorbance at 630 nm<0.05, respectively) | – | – | – | – |
| COc1cnc(N2CCn3c(C)cc4c(-c5ccc(C)cc5)c([C@H](OC(C)(C)C)C(=O)O)c(C)c2c43)nc1 [Compound I-189] | 22 | > 20000 | 1.6 | 3.2 | 3.1 | (−) (When a shifted IC was 1.0 or less, this was defined as negative) | (−) (negative criteria (−), PI<10% and changes in absorbance at 630 nm<0.05, respectively) | – | – | – | – |
| COCC[C@H]1Cn2c(C)cc3c(-c4ccc(Cl)cc4)c([C@H](OC(C)(C)C)C(=O)O)c(C)c(c32)N1S(C)(=O)=O [Compound I-043] | 3.2 | > 20000 | – | – | – | (−) (When a shifted IC was 1.0 or less, this was defined as negative) | (−) (negative criteria (−), PI<10% and changes in absorbance at 630 nm<0.05, respectively) | 1.4 | 2.3 | 11 | – |
| Cc1c([C@H](OC(C)(C)C)C(=O)O)c(-c2ccc(Cl)cc2)c2cc(C)n3c2c1N(c1ncc(OCCN(C)C)cn1)CC3 [Compound I-244] | 3.4 | > 20000 | 4.8 | 8 | 12 | (−) (When a shifted IC was 1.0 or less, this was defined as negative) | (−) (negative criteria (−), PI<10% and changes in absorbance at 630 nm<0.05, respectively) | – | – | – | – |
| Cc1ccc(-c2c([C@H](OC(C)(C)C)C(=O)O)c(C)c3c4c2cc(C)n4CCN3c2ncc(CN(C)C)cn2)cc1 [Compound I-304] | 6.8 | > 20000 | – | – | – | (−) (When a shifted IC was 1.0 or less, this was defined as negative) | (−) (negative criteria (−), PI<10% and changes in absorbance at 630 nm<0.05, respectively) | 4.1 | – | 7.2 | – |
| Cc1c([C@H](OC(C)(C)C)C(=O)O)c(-c2ccc(Cl)cc2)c2cc(C)n3c2c1N(c1ncc(F)cn1)CC3 [Compound I-122] | 23 | > 20000 | 1.3 | 2.9 | 5.1 | (−) (When a shifted IC was 1.0 or less, this was defined as negative) | (−) (negative criteria (−), PI<10% and changes in absorbance at 630 nm<0.05, respectively) | – | – | – | – |
| CCOc1cnc(N2CCn3c(C)cc4c(-c5ccc(Cl)cc5)c([C@H](OC(C)(C)C)C(=O)O)c(C)c2c43)nc1 [Compound I-181] | 17 | > 20000 | – | 2.3 | 3.5 | (−) (When a shifted IC was 1.0 or less, this was defined as negative) | (−) (negative criteria (−), PI<10% and changes in absorbance at 630 nm<0.05, respectively) | – | – | – | 1.4 |
| Cc1ccc(-c2c([C@H](OC(C)(C)C)C(=O)O)c(C)c3c4c2cc(C)n4CCN3c2ncc(CN3CCCCC3)cn2)cc1 [Compound I-308] | 11 | > 20000 | – | – | – | (−) (When a shifted IC was 1.0 or less, this was defined as negative) | (−) (negative criteria (−), PI<10% and changes in absorbance at 630 nm<0.05, respectively) | 1.6 | 4.8 | 4.3 | – |
| Cc1ccc(-c2c([C@H](OC(C)(C)C)C(=O)O)c(C)c3c4c2cc(C)n4CCN3c2ncc(OC3CCN(C)CC3)cn2)cc1 [Compound I-278] | 3.6 | > 20000 | 5.5 | 11 | 13 | (−) (When a shifted IC was 1.0 or less, this was defined as negative) | (−) (negative criteria (−), PI<10% and changes in absorbance at 630 nm<0.05, respectively) | – | – | – | – |
| Cc1ccc(-c2c([C@H](OC(C)(C)C)C(=O)O)c(C)c3c4c2cc(C)n4CCN3c2ccc(N3CCCC3=O)nn2)cc1 [Compound I-303] | 15 | > 20000 | – | – | – | (−) (When a shifted IC was 1.0 or less, this was defined as negative) | (−) (negative criteria (−), PI<10% and changes in absorbance at 630 nm<0.05, respectively) | 1.5 | 4 | 4.3 | – |
